Drawing on US20200123147A1, “THIAZOLE COMPOUNDS USEFUL AS PRMT5 INHIBITORS” (Bayer Aktiengesellschaft, priority 2017, published 2020), this text covers IC50 for 4 compounds.

The test system of assay [1] is PRMT5 (histone H4 Arg3 SDMA levels in MDA-MB-468 cells). As to the kind of experiment: In vitro assay 2: quantification of SDMA (symmetric dimethylarginine) expression levels (H4 Arg3) in cancer cells, High-Content Analysis. The assay is classed as cell-based. To be noted: Homo sapiens, 72 h, SDMA histone H4 (Arg3) average signal intensity per cell. An excerpt: In Vitro Assay 2: Quantification of SDMA (Symmetric Dimethylarginine) Expression Levels (H4 Arg3) After Small Molecule Treatment of Cancer Cells
The SDMA-assay based on High-Content Analysis (HCA) enables the biological characterization of compounds inhibiting PRMT5. By this assay, substances are benchmarked on their cellular activity to modulate histone H4 Arg3 levels over broad inhibitor concentration ranges.
Cultivated cells of the human mammary gland tumor cell line MDA-MB-468 (ATCC HTB-132) were plated at a density of 2500 cells per well in a 384-well microtiter plate in 20 μL of Roswell Park Memorial Institute (RPMI) 1640 medium supplemented with 1% (v/v) glutamine, 1% (v/v) penicillin, 1% (v/v) streptomycin and 10% (v/v) fetal calf serum. After pre-incubation at 37° C. overnight, test compo unds solubilized in DMSO were added at various concentrations (0 μM, as well as in the range of 0.005 μM-30 μM; the final concentration of the solvent DMSO was 0.5% (v/v)). Cells were incubated at 37° C. for 72 h in the presence of test compounds. Thereafter, cells were fixed with 4% (v/v) paraformaldehyde in phosphate buffered saline (PBS) at room temperature for 1 h, permeabilized using 0.5% (v/v) Triton X™ 100 in PBS for 15 min and blocked with 1% (v/v) bovine serum albumin (BSA) in PBS for 30 min. In the following, cells were incubated with anti-dimethyl-histone H4 (Arg3) symmetric antibody (Millipore #07-947) at RT for 2 h. After a single washing step with blocking solution, cells were incubated with species-specific fluorescent conjugated secondary antibody Alexa Fluor™ 488 (Jackson Immuno Research #111-546-003) at RT for 2 h.
Image acquisition for cells was carried out using the confocal imaging system OPERA® (PerkinElmer). Images were captured using two channels: Hoechst 33342 stain (DNA) and Alexa Fluor™ 488 (SDMA staining); and were analyzed using the MetaXpress® software (Molecular Devices). Exposure times were chosen for individual experiments to prevent saturation and allow for quantification in the linear range. A minimum of 500 cells in 5 field views were analyzed per well using 10× water immersion objective with a two-fold binning.
The image analysis routine was developed in MetaXpress®. The standardized image-analysis module “Count Nuclei” and the images of the DNA-channel were used for nuclei segmentation. The segmented nuclei were filtered for size, shape and signal intensity to exclude possible apoptotic and non-viable cells along with metaphase nuclei. These phenotypes result in overestimated antibody signals, due to their strong chromatin compaction. For further processing, binary object masks were calculated from the segmented and positively selected nuclei. The binary masks served as templates to be superimposed over the images of the SDMA channel. The SDMA average signal intensity per cell was quantified for every image set. The assay raw data were further analyzed by four parameter logistic regression analysis using Genedata's Assay Analyzer® and Condoseo® software to determine the IC50 value for each tested compound.

Assay [2] deals with T1, PRMT5:MEP50 protein complex (Homo sapiens, UniProt O14744).
T1 construct: FLAG (N); made in house; host or cells: Hi5 insect cells
T1 sequence (O14744 whole entry, species assumed): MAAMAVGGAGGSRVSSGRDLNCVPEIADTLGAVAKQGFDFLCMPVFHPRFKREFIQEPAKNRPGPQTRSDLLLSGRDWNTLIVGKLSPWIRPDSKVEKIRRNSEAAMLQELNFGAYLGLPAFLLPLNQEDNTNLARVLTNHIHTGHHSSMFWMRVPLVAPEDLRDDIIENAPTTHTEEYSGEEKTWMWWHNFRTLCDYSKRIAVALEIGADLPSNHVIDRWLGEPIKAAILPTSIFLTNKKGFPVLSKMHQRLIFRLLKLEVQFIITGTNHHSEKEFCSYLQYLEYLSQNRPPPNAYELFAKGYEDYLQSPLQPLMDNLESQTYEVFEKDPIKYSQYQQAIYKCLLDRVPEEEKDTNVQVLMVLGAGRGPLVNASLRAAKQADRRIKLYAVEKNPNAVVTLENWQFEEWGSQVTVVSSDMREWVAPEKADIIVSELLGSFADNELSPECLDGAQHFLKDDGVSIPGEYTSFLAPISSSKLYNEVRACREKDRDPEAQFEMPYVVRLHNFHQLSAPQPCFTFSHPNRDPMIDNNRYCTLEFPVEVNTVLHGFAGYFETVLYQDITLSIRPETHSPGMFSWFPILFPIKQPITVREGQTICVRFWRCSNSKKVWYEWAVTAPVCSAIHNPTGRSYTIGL
T1 sequence (Q9BQA1 whole entry partner, species assumed): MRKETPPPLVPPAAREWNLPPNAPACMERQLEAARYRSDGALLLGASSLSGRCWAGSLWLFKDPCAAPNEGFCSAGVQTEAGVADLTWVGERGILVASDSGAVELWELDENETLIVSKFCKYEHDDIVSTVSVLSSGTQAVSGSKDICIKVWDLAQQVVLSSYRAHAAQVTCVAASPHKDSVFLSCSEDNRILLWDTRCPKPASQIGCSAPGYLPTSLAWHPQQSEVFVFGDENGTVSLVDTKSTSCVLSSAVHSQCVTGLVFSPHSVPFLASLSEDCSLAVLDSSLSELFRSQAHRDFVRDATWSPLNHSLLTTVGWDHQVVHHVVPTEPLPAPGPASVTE
The assay can be described thus: In vitro assay 1: PRMT5 SPA assay ("EAA"). The assay is classed as biochemical. To be noted: scintillation proximity assay, methylation of biotinylated H4(1-24) peptide, 3H-SAM, 60 min at 22° C. The source says: In Vitro Assay 1: PRMT5 SPA Assay (“EAA”)
PRMT5 inhibitory activities of the compounds described in the present invention were quantified using a scintillation proximity assay (SPA) which measures methylation by the enzyme of a synthetic, biotinylated peptide corresponding to the N-terminal sequence of Histone H4 (a.a. 1-24). The peptide of sequence […]-K(Btn)-amide is commercially available (e.g. from Biosyntan) and will be herein referred to as H4(1-24). The PRMT5:MEP50 protein complex used in the assay was produced in house following standard protocols. Briefly, full length PRMT5 and MEP50 constructs respectively tagged with N-terminal FLAG and 6× His sequences were co-expressed in Hi5 insect cells, and the recombinant protein complex was purified by FLAG affinity and size exclusion chromatography.
In a typical assay 11 different concentrations of each compound (0.1 nM, 0.33 nM, 1.1 nM, 3.8 nM, 13 nM, 44 nM, 0.15 μM, 0.51 μM, 1.7 μM, 5.9 μM and 20 μM) were tested in duplicate within the same microtiter plate. To this end, 100-fold concentrated compound solutions (in DMSO) were previously prepared by serial dilution (1:3.4) of 2 mM stocks in a clear low volume 384-well source microtiter plate (Greiner Bio-One), from which 50 nl of compounds were transferred into a white low volume test microtiter plate from the same supplier. Subsequently, 2.5 μL PRMT5 in aqueous assay buffer [20 mM Bicine pH 8.0 (Alfa Aesar), 7.5 mM Tris(2-carboxyethyl) phosphine hydrochloride (TCEP, Sigma), 0.1% (w/v) bovine gamma globuline (BGG, Sigma), 0.002% (v/v) Tween-20 (Sigma)] were added to the compounds in the test plate to a final enzyme concentration of—typically—7.5 nM (this parameter was adjusted depending on the activity of the enzyme lot in order to be within the linear dynamic range of the assay). The samples were then incubated for 15 min at 22° C. to allow pre-equilibration of the putative enzyme-inhibitor complexes before the start of the methylation reaction, which was initiated by the addition of 2.5 μL 2-fold concentrated solution (in assay buffer) of “cold” S-Adenosyl-L-Methionine (SAM, Sigma, final concentration: 0.5 μM), tritiated 3H-SAM (Perkin Elmer, final concentration: 0.5 μM) and H4(1-24) peptide substrate (final concentration: 0.06 μM). The resulting mixture (5 μL final volume) was shortly centrifuged (2 min., 1500 rpm) and incubated at 22° C. during 60 min. Thereupon the reaction was stopped by adding 3 μL of Streptavidin PS SPA imaging beads (Perkin Elmer, final concentration of 0.375 μg/μL) and “cold” SAM (AK Scientific, 250 μM final concentration) for non-specific binding reduction. Plates containing the stopped reaction were sealed with transparent adhesive foil (Perkin Elmer), centrifuged (2 min., 1500 rpm), and further incubated either 1 h at 22° C. or overnight at 4° C. in order to allow the SPA signals to develop. Subsequently, the amount of product was evaluated by measuring the energy transfer from the β-particles emitted by the 3H-labeled substrate to the Europium scintillator co-polymerized in the polystyrene matrix of the PS imaging beads, using the standard settings for this purpose of a Viewlux (Perkin-Elmer) CCD plate imaging device (emission filter 613/55 (IFP).
The resulting scintillation counts were taken as indicator for the amount of methylated peptide per well. The data were normalised using two sets of control wells (typically 16 each) for high—(=enzyme reaction with DMSO instead of test compound=0%=minimum inhibition) and low—(=all assay components without enzyme=100%=maximum inhibition) PRMT5 activity. IC50 values were calculated by fitting the normalized inhibition data to a 4-parameter logistic equation using the “Screener” analysis software from Genedata.
Background: Scintillation proximity formats need no separation of bound from free tracer.

In general, IC50 refers to the midpoint of a concentration-inhibition curve. On to `Cc1cc(NC(=O)c2csc(Nc3ccc(Cl)cc3)n2)no1` [Example 20, 2-[(4-Chlorophenyl)amino]-N-(5-methyl-1,2-oxazol-3-yl)-1,3-thiazole-4-carboxamide], for which the IC50 was ≥ 30000 nM in assay [1] and 971 nM in assay [2].

As to `CC(C)(C)c1cc(NC(=O)c2csc(Nc3ccc(Cl)c(Cl)c3)n2)no1` [Example 21, N-(5-tert-Butyl-1,2-oxazol-3-yl)-2-[(3,4-dichlorophenyl)amino]-1,3-thiazole-4-carboxamide], the IC50 in assay [1] is 26700 nM; in assay [2], 1390 nM.

On to `CCN(CC)CCOc1cc(NC(=O)c2csc(Nc3ccccc3)n2)ccc1-c1ccc(C)cc1` [Example 22, N-{2-[2-(Diethylamino)ethoxy]-4′-methylbiphenyl-4-yl}-2-(phenylamino)-1,3-thiazole-4-carboxamide], for which the concentration for half-maximal inhibition (IC50) in assay [1] was determined as 23400 nM; in assay [2], 941 nM.

With `Cn1ccc(NC(=O)c2csc(Nc3ccccc3)n2)n1` [Example 23, N-(1-Methyl-1H-pyrazol-3-yl)-2-(phenylamino)-1,3-thiazole-4-carboxamide], the IC50 in assay [1] came out at 23200 nM; in assay [2] it was 1610 nM.
